Our source for the inhibition values is ChEMBL document CHEMBL1158542, “Synthesis and biological evaluation of modified pentapeptides as potent proteinase K inhibitors” (Bioorg Med Chem Lett, 2010).

Each structure is given as a SMILES string. Activity calls are given as the source filed them. The calls are words filed in the database; no cut-off is given here.

Assay [1] in a line: Inhibition of proteinase K at 0.75 mM pretreated for 1 hr by RT-PCR analysis.
The subject of assay [2] is HeLa. Description: Inhibition of proteinase K in human HeLa cells assessed as beta-actin RNA level at 0.5 mM by RT-PCR analysis. The class given is cell-based.
The nature of assay [3]: Inhibition of proteinase K at 0.25 mM by RT-PCR analysis in presence of BSA.
Assay [4] can be described thus: Inhibition of proteinase K at 0.25 to 1 mM pretreated for 1 hr by RT-PCR analysis.
Assay [5] in a line: Inhibition of proteinase K at 0.5 mM pretreated for 1 hr by RT-PCR analysis.
Assay [6] in a line: Inhibition of proteinase K at 0.10 mM by RT-PCR analysis in presence of BSA.
The subject of assay [7] is HeLa. Description: Inhibition of proteinase K in human HeLa cells assessed as beta-actin RNA level at 0.10 mM by RT-PCR analysis. In kind it is cell-based.
The nature of assay [8]: Inhibition of proteinase K at 0.05 mM pretreated for 1 hr by RT-PCR analysis.

For the compound `COC(=O)CCC(=O)N[C@@H](C)C(=O)N[C@H](C)C(=O)N[C@@H](C)C(=O)N1CCC[C@H]1C(=O)N[C@H](C(=O)CCl)C(C)C`, the inhibition result in assay [1], in assay [2], in assay [3] and in assay [4] was “Active” in each case. Also, the inhibition result in assay [5] is “inactive”.

Turning to `COC(=O)CCC(=O)N[C@@H](C)C(=O)N[C@H](C)C(=O)N[C@@H](C)C(=O)N1CCC[C@H]1C(=O)N[C@@H](CC(C)C)C(=O)CCl`, the inhibition entry in assay [6], in assay [7] and in assay [8] was “Active” in each case.
